Measurements from patent US9187465B2, “Oxazole tyrosine kinase inhibitors” (Sareum Limited, priority 2007, dated 2015).

Tests used:
HCT116 cells = experiment: Anti-proliferative activity, Alamar Blue assay, HCT116; format: cell-based; details: Homo sapiens, HCT-116, 72 hours, read-out: cell proliferation IC50
Description: (§1) The anti-proliferative activities of compounds of the invention are determined by measuring the ability of the compounds to inhibition of cell growth in a number of cell lines. Inhibition of cell growth is measured using the Alamar Blue assay (Nociari et al., Journal of Immunological Methods (1998) 213, 157-167). The method is based on the ability of viable cells to reduce resazurin to its fluorescent product resorufin. For each proliferation assay cells are plated onto 96 well plates and allowed to recover for 16 hours prior to the addition of inhibitor compounds for a further 72 hours. At the end of the incubation period 10% (v/v) Alamar Blue is added and incubated for a further 6 hours prior to determination of fluorescent product at Excitation 535 nm and Emission 590 nm. In the case of the non-proliferating cell assay cells are maintained at confluence for 96 hour prior to the addition of inhibitor compounds for a further 72 hours. The number of viable cells is determined by Alamar Blue assay as before. All cell lines are obtained from ECACC (European Collection of cell Cultures).

human FLT3 = biological target: T1, human FLT3 (Homo sapiens, UniProt P36888); experiment: FLT3 kinase assay (DELFIA enzyme inhibition); format: biochemical
T1 construct: a construct expressing the human FLT3 (564-993) with an amino terminal GST tag; host or cells: Sf9 insect cells (baculovirus)
T1 sequence (P36888 564-993): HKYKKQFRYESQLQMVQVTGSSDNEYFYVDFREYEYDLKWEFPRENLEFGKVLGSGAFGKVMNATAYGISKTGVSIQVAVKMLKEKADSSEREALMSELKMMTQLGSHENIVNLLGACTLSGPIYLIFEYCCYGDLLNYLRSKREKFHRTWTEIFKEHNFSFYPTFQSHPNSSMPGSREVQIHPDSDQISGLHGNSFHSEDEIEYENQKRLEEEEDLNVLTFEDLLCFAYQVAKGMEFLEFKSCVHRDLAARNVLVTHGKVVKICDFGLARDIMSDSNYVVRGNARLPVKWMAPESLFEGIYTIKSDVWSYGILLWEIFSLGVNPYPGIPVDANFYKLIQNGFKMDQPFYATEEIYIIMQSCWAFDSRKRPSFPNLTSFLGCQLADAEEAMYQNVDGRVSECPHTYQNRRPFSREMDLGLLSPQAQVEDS
In short: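 GST-tagged human FLT3 (564-993), expressed in sf9 cells, phosphorylated a biotinylated Gastrin Precursor (Tyr 87)-derived peptide for 30 min at room temperature before EDTA stop. The captured peptide was detected by Eu-labelled anti-phosphotyrosine DELFIA time-resolved fluorescence. IC50 was derived from % inhibition curves.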

human FLT4 = biological target: T2, human FLT4 (Homo sapiens, UniProt P35916); experiment: FLT4 kinase assay (DELFIA enzyme inhibition); format: biochemical; details: read-out: FLT4 IC50
T2 construct: a construct expressing the human FLT4 (789-1207) with an amino terminal GST tag; host or cells: Sf9 insect cells (baculovirus)
T2 sequence (P35916 789-1207): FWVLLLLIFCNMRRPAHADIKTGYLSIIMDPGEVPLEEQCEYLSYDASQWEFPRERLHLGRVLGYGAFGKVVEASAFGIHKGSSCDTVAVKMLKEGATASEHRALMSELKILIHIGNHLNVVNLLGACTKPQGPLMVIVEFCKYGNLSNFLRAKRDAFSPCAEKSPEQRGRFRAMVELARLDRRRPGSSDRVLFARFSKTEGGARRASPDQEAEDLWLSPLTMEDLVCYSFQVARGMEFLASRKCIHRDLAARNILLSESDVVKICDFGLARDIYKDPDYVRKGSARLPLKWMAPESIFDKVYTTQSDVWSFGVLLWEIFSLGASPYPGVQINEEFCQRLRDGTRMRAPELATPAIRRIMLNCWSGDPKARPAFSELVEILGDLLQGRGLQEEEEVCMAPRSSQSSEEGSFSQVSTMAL
In short: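 Read-out is DELFIA: biotinylated MET Tyr1253-derived peptide captured on Neutravidin, phosphotyrosine detected by Eu-antibody time-resolved fluorescence. Enzyme is Sf9-expressed GST-FLT4 (789-1207), reacting 30 min at room temperature before EDTA stop. IC50 derived from plotted % inhibition.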

human Aurora A = biological target: T3, human Aurora A (Homo sapiens, UniProt O14965); experiment: Aurora A kinase assay (DELFIA enzyme inhibition); format: biochemical; details: read-out: Aurora A IC50
T3 construct: Histidine tag (N); host or cells: Sf9 insect cells (baculovirus)
T3 sequence (O14965 1-403): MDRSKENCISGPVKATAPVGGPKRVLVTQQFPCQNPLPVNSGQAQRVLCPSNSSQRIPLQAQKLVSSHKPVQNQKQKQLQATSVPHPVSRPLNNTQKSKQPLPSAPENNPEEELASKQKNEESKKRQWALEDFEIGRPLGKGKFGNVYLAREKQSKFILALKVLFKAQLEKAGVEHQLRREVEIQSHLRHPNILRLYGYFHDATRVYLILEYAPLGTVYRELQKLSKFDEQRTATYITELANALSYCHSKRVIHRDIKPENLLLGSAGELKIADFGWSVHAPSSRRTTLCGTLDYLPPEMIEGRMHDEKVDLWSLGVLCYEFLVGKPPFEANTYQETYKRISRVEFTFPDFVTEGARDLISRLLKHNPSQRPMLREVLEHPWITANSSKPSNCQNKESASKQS
In short: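 DELFIA read-out (time-resolved Eu fluorescence, 620 nm emission) after Neutravidin capture of biotinylated peptide substrate and antibody detection. Reaction: Ni-agarose-purified Aurora A, 30 min at room temperature, stopped with 100 mM EDTA.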

[1] = tested on: A549 human lung carcinoma cells; experiment: Anti-proliferative activity, Alamar Blue assay, A549; format: cell-based; details: A549, 72 h, read-out: cell growth IC50
Description: as §1

NC(=O)c1nc(-c2c(F)cccc2F)oc1-c1ccc(OCCN2CCOCC2)cc1 [Example F-13, 2-(2,6-difluorophenyl)-5-(4-(2-morpholinoethoxy)phenyl)oxazole-4-carboxamide]
IC50 (HCT116 cells): < 10 µM | IC50 (human FLT3): < 10 µM | IC50 (human FLT4): < 10 µM | IC50 (human Aurora A): < 10 µM

CNC(=O)N1CCN(c2ccc(Nc3oc(-c4c(F)cccc4F)nc3C(N)=O)cc2)CC1 [Example J-3, 4-(4-(4-carbamoyl-2-(2,6-difluorophenyl)oxazol-5-ylamino)phenyl)-N-methylpiperazine-1-carboxamide]
IC50 (HCT116 cells): < 10 µM | IC50 (human FLT3): < 10 µM | IC50 (human FLT4): < 10 µM | IC50 (human Aurora A): < 10 µM

CN1CCN(c2ccc(Nc3oc(-c4c(F)cccc4F)nc3C(N)=O)cc2)CC1 [Example Q-7, 2-(2,6-difluorophenyl)-5-(4-(4-methylpiperazin-1-yl)phenylamino)oxazole-4-carboxamide]
IC50 (HCT116 cells): < 10 µM | IC50 (human FLT3): < 10 µM | IC50 (human FLT4): < 10 µM | IC50 (human Aurora A): < 10 µM

NC(=O)c1nc(-c2c(F)cccc2F)oc1Nc1ccc(OCCN2CCOCC2)cc1 [Example Q-8, 2-(2,6-difluorophenyl)-5-(4-(2-morpholinoethoxy)phenylamino)oxazole-4-carboxamide]
IC50 (HCT116 cells): < 10 µM | IC50 (human FLT3): < 10 µM | IC50 (human FLT4): < 10 µM | IC50 (human Aurora A): < 10 µM

CC(=O)N1CCN(c2ccc(Nc3oc(-c4c(F)cccc4F)nc3C(N)=O)cc2)CC1 [Example Q-9, 5-(4-(4-acetylpiperazin-1-yl)phenylamino)-2-(2,6-difluorophenyl)oxazole-4-carboxamide]
IC50 (HCT116 cells): < 10 µM | IC50 (human FLT3): < 10 µM | IC50 (human FLT4): < 10 µM | IC50 (human Aurora A): < 10 µM

CN(C)S(=O)(=O)c1ccc(Nc2oc(-c3c(F)cccc3F)nc2C(N)=O)cc1 [Example Q-26, 2-(2,6-difluorophenyl)-5-(4-(N′,N′-dimethylsulfonamide)phenylamino)oxazole-4-carboxamide]
IC50 (human FLT3): < 10 µM | IC50 (human FLT4): < 10 µM | IC50 (human Aurora A): < 10 µM | IC50 [1]: < 10 µM

COc1ccccc1Nc1nc(C(N)=O)c(-c2ccc(N3CCNCC3)cc2)o1 [Example R-11, 2-(2-methoxyphenylamino)-5-(4-(piperazin-1-yl)phenyl)oxazole-4-carboxamide]
IC50 (HCT116 cells): < 10 µM | IC50 (human FLT3): < 10 µM | IC50 (human FLT4): < 10 µM | IC50 (human Aurora A): < 10 µM

NC(=O)c1nc(-c2c(F)cccc2F)oc1Nc1ccc(C(=O)NCCCO)cc1 [Example U-17, 5-(4-((3-hydroxypropyl)carbamoyl)phenylamino)-2-(2,6-difluorophenyl)oxazole-4-carboxamide]
IC50 (human FLT3): < 10 µM | IC50 (human FLT4): < 10 µM | IC50 (human Aurora A): < 10 µM

CN1CCC(NC(=O)c2ccc(Nc3oc(-c4c(F)cccc4F)nc3C(N)=O)cc2)CC1 [Example U-18, 5-(4-((1-methylpiperidin-4-yl)carbamoyl)phenylamino)-2-(2,6-difluorophenyl) oxazole-4-carboxamide]
IC50 (human FLT3): < 10 µM | IC50 (human FLT4): < 10 µM | IC50 (human Aurora A): < 10 µM

NC(=O)c1nc(-c2c(F)cccc2F)oc1Nc1ccc(C(=O)N2CCOCC2CO)cc1 (stereo not shown) [Example U-19, 2-(2,6-difluorophenyl)-5-(4-(3-(hydroxymethyl)morpholine-4-carbonyl)phenylamino)oxazole-4-carboxamide]
IC50 (human FLT3): < 10 µM | IC50 (human FLT4): < 10 µM | IC50 (human Aurora A): < 10 µM

CC(C)(C)OC(=O)N1CCC(NC(=O)c2ccc(Nc3oc(-c4c(F)cccc4F)nc3C(N)=O)cc2)CC1 [Example U-20, tert-butyl 4-(4-(4-carbamoyl-2-(2,6-difluorophenyl)oxazol-5-ylamino)benzamido) piperidine-1-carboxylate]
IC50 (human FLT3): < 10 µM | IC50 (human FLT4): < 10 µM | IC50 (human Aurora A): < 100 µM

NC(=O)c1nc(-c2c(F)cccc2F)oc1Nc1ccc(C(=O)NC2CCNCC2)cc1 [Example U-21, 2-(2,6-difluorophenyl)-5-(4-(piperidin-4-ylcarbamoyl)phenylamino)oxazole-4-carboxamide]
IC50 (human FLT3): < 10 µM | IC50 (human FLT4): < 10 µM | IC50 (human Aurora A): < 10 µM

CC(C)(C)OC(=O)NCC1CN(C(=O)c2ccc(Nc3oc(-c4c(F)cccc4F)nc3C(N)=O)cc2)CCO1 (stereo not shown) [Example U-22, tert-butyl (4-(4-(4-carbamoyl-2-(2,6-difluorophenyl)oxazol-5-ylamino)benzoyl)morpholin-2-yl)methylcarbamate]
IC50 (human FLT3): < 10 µM | IC50 (human FLT4): < 10 µM | IC50 (human Aurora A): < 10 µM

NCC1CN(C(=O)c2ccc(Nc3oc(-c4c(F)cccc4F)nc3C(N)=O)cc2)CCO1 (stereo not shown) [Example U-23, 5-(4-(2-(aminomethyl)morpholine-4-carbonyl)phenylamino)-2-(2,6-difluorophenyl) oxazole-4-carboxamide]
IC50 (human FLT3): < 10 µM | IC50 (human FLT4): < 10 µM | IC50 (human Aurora A): < 10 µM

CN1CCN(C(=O)c2ccc(Nc3oc(-c4c(F)cccc4F)nc3C(N)=O)cc2)CC1CCO (stereo not shown) [Example U-24, 2-(2,6-difluorophenyl)-5-(4-(2-(2-hydroxyethyl)-1-methylpiperazine-4-carbonyl)phenylamino)oxazole-4-carboxamide]
IC50 (human FLT3): < 10 µM | IC50 (human FLT4): < 10 µM | IC50 (human Aurora A): < 10 µM

CN1CCN(C(=O)c2ccc(Nc3oc(-c4c(F)cccc4F)nc3C(N)=O)cc2)CC1CO (stereo not shown) [Example U-25, 2-(2,6-difluorophenyl)-5-(4-(2-(hydroxymethyl)-1-methylpiperazine-4-carbonyl)phenylamino)oxazole-4-carboxamide]
IC50 (human FLT3): < 10 µM | IC50 (human FLT4): < 10 µM | IC50 (human Aurora A): < 10 µM

CN1CCN(C(=O)c2ccc(Nc3oc(-c4c(F)cccc4F)nc3C(N)=O)cc2)[C@@H](CO)C1 [Example U-26, (R)-2-(2,6-difluorophenyl)-5-(4-(3-(hydroxymethyl)-1-methylpiperazine-4-carbonyl)phenylamino)oxazole-4-carboxamide]
IC50 (human FLT3): < 10 µM | IC50 (human FLT4): < 10 µM | IC50 (human Aurora A): < 10 µM

CN1CCN(C(=O)c2ccc(Nc3oc(-c4c(F)cccc4F)nc3C(N)=O)cc2)[C@H](CO)C1 [Example U-27, (S)-2-(2,6-difluorophenyl)-5-(4-(3-(hydroxymethyl)-1-methylpiperazine-4-carbonyl)phenylamino)oxazole-4-carboxamide]
IC50 (human FLT3): < 10 µM | IC50 (human FLT4): < 10 µM | IC50 (human Aurora A): < 10 µM

CN1CCN(C(=O)Nc2ccc(Nc3oc(-c4c(F)cccc4F)nc3C(N)=O)cc2)CC1 [Example V-2, N-(4-(4-carbamoyl-2-(2,6-difluorophenyl)oxazol-5-ylamino)phenyl)-4-methyl piperazine-1-carboxamide]
IC50 (human FLT3): < 10 µM | IC50 (human FLT4): < 10 µM | IC50 (human Aurora A): < 10 µM

CNCCC(=O)Nc1ccc(Nc2oc(-c3c(F)cccc3F)nc2C(N)=O)cc1 [Example V-3, 2-(2,6-difluorophenyl)-5-(4-(3-(methylamino)propanamido)phenylamino)oxazole-4-carboxamide]
IC50 (human FLT3): < 10 µM | IC50 (human FLT4): < 10 µM | IC50 (human Aurora A): < 10 µM

NC(=O)c1nc(-c2c(F)cccc2F)oc1Nc1ccc(NC(=O)C2CCCNC2)cc1 (stereo not shown) [Example V-4, N-(4-(4-carbamoyl-2-(2,6-difluorophenyl)oxazol-5-ylamino)phenyl)piperidine-3-carboxamide]
IC50 (human FLT3): < 10 µM | IC50 (human FLT4): < 10 µM | IC50 (human Aurora A): < 10 µM
